According to patent US20240279171A1, “METHODS FOR PREPARING CRYSTALLINE FORMS OF AMISULPRIDE” (SUNOVION PHARMACEUTICALS INC., priority 2021, published 2024):
Read-outs that look alike come from different tables or passages of the source.

Assays:
[1] = Particle size distribution (Malvern Mastersizer), Example 16; assay type: physicochemical; conditions: for PSD D10 (μm) / PSD D50 (μm) / PSD D90 (μm): cooling method Y (Example 4) vs cooling method X (Example 14); for D10 (μm) / D50 (μm) / D90 (μm): crystalline amisulpride used in the tablet formulations, Mastersizer 2000
From the text: The particle size distribution (PSD) of crystalline products prepared by the foregoing examples were examined. FIG. 10 presents a plot of the cooling profile comparison between the cooling profile X, using the recrystallization procedure of, e.g., Example 14, with cooling profile Y, using the recrystallization procedure of, e.g., Example 4 (Step 2). Recrystallization using the cooling methods of Example 14 (cooling method X) provided Form A′ having a smaller particle size distribution (e.g., D50 and D90 values) than Form A′ prepared by the methods of Example 4 (cooling method Y), as shown in the table below.
PSD data was obtained using a Malvern Instruments Mastersizer particle size analyzer instrument.
The PSD of the crystalline amisulpride used in the various formulations are provided below. Amisulpride corresponding to “small PSD” can be prepared using the recrystallization and cooling methods of, e.g., Examples 14 and 15 (i.e., cooling profile X of FIG. 10). Amisulpride corresponding to “large PSD” can be prepared using the recrystallization methods of Examples 1 and 3 (i.e., cooling profile Y of FIG. 10). The PSDs were measured using a Mastersizer 2000 particle size analyzer instrument as described above.

[2] = Specific surface area (SSA), nitrogen gas, Quantachrome Quadrasorb SI; assay type: physicochemical; conditions: degassed 2 hours at 40° C. under vacuum
Method: Specific surface area (SSA) was measured using a Quantachrome Quadrasorb SI surface area analyzer performed at six-points over the relative pressure range of 0.1000 to 0.3500 in 0.0500 increments. Approximately 1.3 to 4.6 grams of sample were used per analysis and were weighed into bulb tubes. Samples in bulb tubes were degassed 2 hours at 40° C. under vacuum using the Quantachrome FlowVac degasser prior to surface area analysis. Nitrogen gas was used as the gas for the surface area analyses.

[3] = Particle size distribution by laser diffraction (Malvern Mastersizer 3000), Example 9; assay type: physicochemical; conditions: pre-sieved through 30 mesh screen, 0.2% Span 85 in hexanes
Method: Prior to analysis, the Form A′ crystals of (S)-amisulpride and Form A crystals of (R)-amisulpride were separately pre-sieved through a 30 mesh screen. All material was passed through screen during this pre-sieving step including aggregates.
Particle size distribution (PSD) measurements were measured by laser diffraction using a Malvern Instruments Mastersizer 3000 particle size analyzer instrument operated with the instrumentation and parameters described in Table 7.
The samples were first sieved through a 30 mesh screen prior to suspension. Approximately 400 mg of the sieved sample was weighed into a 50 ml beaker and 40 ml of a 0.2% v/v Span 85 (Sorbitan trioleate) in hexanes dispersant solution (e.g., a dispersant solution prepared by dissolving 2 mL of Span 85 (Sorbitan trioleate) in 1 L of hexanes) added. The overhead stirrer impeller was placed slightly above the bottom of the beaker (about 1 to 1.5 cm) and stirred at 500 rpm. After 1 minute, a disposable graduated transfer pipette was used to remove about 3 mL of the sample suspension from the center position of the beaker between impeller shaft and beaker side, and midway between top of vortex and beaker bottom. The entire contents of the pipette were added to the Malvern sample cell without inverting the pipette and the pipette rinsed twice with the circulating dispersant from the sample cell. The obscuration should be between 7% and 15%, if the obscuration was less than 7%, another aliquot of sample was added, making sure to transfer the entire aliquot taken up in the transfer pipette to the instrument, in order to avoid, e.g., potential artifacts due to settling of the suspension within the pipette. If the obscuration was greater than 15%, the instrument was drained and rinsed, and the measurement performed using a smaller sample suspension aliquot. After a sample cell with acceptable obscuration was obtained, the sample was circulated in the Mastersizer Hydro MV circulation system for two minutes and the sample dispersion measured.

[4] = DVS, 25° C., 0 to 95% relative humidity; '738 patent; cited from earlier work
[5] = Dynamic vapor sorption (DVS) water sorption isotherm; assay type: physicochemical; conditions: 25° C.; for hygroscopicity: DVS
From the text: In various embodiments, the hygroscopicity of a compound is characterized by dynamic vapor sorption (DVS). DVS is a gravimetric technique that measures how much of a solvent is absorbed by a sample by varying the vapor concentration surrounding the sample (e.g., relative humidity) and measuring the change in mass. DVS was used herein to generate water sorption isotherms, which represent the equilibrium amount of water vapor adsorbed and/or absorbed as a function of steady state relative water vapor pressure at a constant temperature.
Dynamic vapor sorption (DVS) isotherms were generated using a VTI SGA-100 Symmetric Vapor Sorption Analyzer. Analysis included pre-analysis drying at 25° C. with equilibrium criteria of 0.0000 wt % change in 5 minutes or a maximum of 180 minutes. Equilibrium criteria were the lesser of 0.01 wt % change in 5 minutes or 180 minutes at each RH step. […] Analysis was repeated for each sample in consecutive analyses (i.e., the sample was not removed from analyzer between analyses).
Tables 9A and 9B presents the DVS water sorption for crystalline enantiomeric amisulpride of Form A and Form A′ shown in FIG. 7A.

[6] = listed as Form A′ (averages of lots prepared by the methods of Example 4)

For `CCN1CCC[C@H]1CNC(=O)c1cc(S(=O)(=O)CC)c(N)cc1OC` [Form A′ prepared by Example 14, (S)-4-Amino-N-[(1-ethyl-2-pyrrolidinyl)methyl]-5-(ethylsulfonyl)-2-methoxybenzamide], the “PSD D10 (μm)” value [1] was 7.0 μm, the “PSD D50 (μm)” value [1] was 25.5 μm and the “PSD D90 (μm)” value [1] was 83.9 μm.
For `CCN1CCC[C@H]1CNC(=O)c1cc(S(=O)(=O)CC)c(N)cc1OC` [(S)-amisulpride Form A′, (S)-4-Amino-N-[(1-ethyl-2-pyrrolidinyl)methyl]-5-(ethylsulfonyl)-2-methoxybenzamide], the “SSA (m^2/g)” value [2] was 0.65 m^2/g, the “Average PSD D10 (μm)” value [3] was 9.5 μm and the “Average PSD D50 (μm)” value [3] was 32.3 μm. The “Average PSD D90 (μm)” value [3] was 116.9 μm, the hygroscopicity [4] was “substantially non-hygroscopic” and the “PSD D10 (μm)” value [1, 6] was 6.0 μm. For the same compound, the “PSD D50 (μm)” value [1, 6] was 29.1 μm, the “PSD D90 (μm)” value [1, 6] was 99.4 μm and the “DVS Ads. at 95% RH” value [5] was 0.09. For the same compound, the “Change Mass (wt %)” value ([5]; Relative Humidity 1.41 %, elapse time 180.73 min) was 0.000 wt %, the “Change Mass (wt %)” value ([5]; Relative Humidity 5.38 %, elapse time 195.14 min) was 0.003 wt % and the “Change Mass (wt %)” value ([5]; Relative Humidity 10.12 %, elapse time 207.64 min) was 0.006 wt %. The “Change Mass (wt %)” value ([5]; Relative Humidity 15.00 %, elapse time 219.64 min) was 0.011 wt %, the “Change Mass (wt %)” value ([5]; Relative Humidity 19.73 %, elapse time 227.64 min) was 0.017 wt % and the “Change Mass (wt %)” value ([5]; Relative Humidity 24.91 %, elapse time 235.64 min) was 0.023 wt %. For the same compound, the “Change Mass (wt %)” value ([5]; Relative Humidity 29.95 %, elapse time 243.64 min) was 0.029 wt %, the “Change Mass (wt %)” value ([5]; Relative Humidity 34.98 %, elapse time 251.64 min) was 0.033 wt % and the “Change Mass (wt %)” value ([5]; Relative Humidity 40.01 %, elapse time 260.64 min) was 0.038 wt %. For the same compound, the “Change Mass (wt %)” value ([5]; Relative Humidity 44.94 %, elapse time 269.64 min) was 0.042 wt %, the “Change Mass (wt %)” value ([5]; Relative Humidity 50.00 %, elapse time 278.64 min) was 0.049 wt % and the “Change Mass (wt %)” value ([5]; Relative Humidity 55.02 %, elapse time 287.66 min) was 0.053 wt %. For the same compound, the “Change Mass (wt %)” value ([5]; Relative Humidity 59.89 %, elapse time 296.66 min) was 0.059 wt %, the “Change Mass (wt %)” value ([5]; Relative Humidity 64.92 %, elapse time 305.66 min) was 0.066 wt % and the “Change Mass (wt %)” value ([5]; Relative Humidity 69.86 %, elapse time 314.66 min) was 0.072 wt %. For the same compound, the “Change Mass (wt %)” value ([5]; Relative Humidity 74.97 %, elapse time 323.66 min) was 0.076 wt %, the “Change Mass (wt %)” value ([5]; Relative Humidity 79.71 %, elapse time 332.66 min) was 0.084 wt % and the “Change Mass (wt %)” value ([5]; Relative Humidity 84.74 %, elapse time 341.66 min) was 0.094 wt %. The “Change Mass (wt %)” value ([5]; Relative Humidity 89.75 %, elapse time 350.66 min) was 0.103 wt %, the “Change Mass (wt %)” value ([5]; Relative Humidity 94.55 %, elapse time 359.68 min) was 0.114 wt % and the hygroscopicity [5] was “substantially non-hygroscopic”.
With `CCN1CCC[C@@H]1CNC(=O)c1cc(S(=O)(=O)CC)c(N)cc1OC` [Form A large PSD] the “D10 (μm)” value [1] was 12.8 μm, the “D50 (μm)” value [1] was 94.9 μm and the “D90 (μm)” value [1] was 441.4 μm.
In the case of `CCN1CCC[C@@H]1CNC(=O)c1cc(S(=O)(=O)CC)c(N)cc1OC` [Form A small PSD], the “D10 (μm)” value [1] is reported as 4.7 μm, the “D50 (μm)” value [1] is reported as 18.2 μm and the “D90 (μm)” value [1] is reported as 90.4 μm.
For `CCN1CCC[C@H]1CNC(=O)c1cc(S(=O)(=O)CC)c(N)cc1OC` [Form A′ large PSD], the “D10 (μm)” value [1] was 31.6 μm, the “D50 (μm)” value [1] was 93.1 μm and the “D90 (μm)” value [1] was 425.4 μm.
In the case of `CCN1CCC[C@@H]1CNC(=O)c1cc(S(=O)(=O)CC)c(N)cc1OC` [(R)-amisulpride Form A, (R)-4-Amino-N-[(1-ethyl-2-pyrrolidinyl)methyl]-5-(ethylsulfonyl)-2-methoxybenzamide], the “SSA (m^2/g)” value [2] is reported as 0.51 m^2/g, the “Average PSD D10 (μm)” value [3] is reported as 14.3 μm and the “Average PSD D50 (μm)” value [3] is reported as 47.7 μm. For the same compound, the “Average PSD D90 (μm)” value [3] was 133.9 μm, the hygroscopicity [4] was “substantially non-hygroscopic” and the “DVS Ads. at 95% RH” value [5] was 0.14. For the same compound, the “Change Mass (wt %)” value ([5]; Relative Humidity 1.39 %, elapse time 155.38 min) was 0.000 wt %, the “Change Mass (wt %)” value ([5]; Relative Humidity 4.79 %, elapse time 327.39 min) was −0.003 wt % and the “Change Mass (wt %)” value ([5]; Relative Humidity 10.00 %, elapse time 340.39 min) was 0.003 wt %. For the same compound, the “Change Mass (wt %)” value ([5]; Relative Humidity 14.96 %, elapse time 359.89 min) was 0.009 wt %, the “Change Mass (wt %)” value ([5]; Relative Humidity 19.81 %, elapse time 366.91 min) was 0.015 wt % and the “Change Mass (wt %)” value ([5]; Relative Humidity 24.91 %, elapse time 374.93 min) was 0.020 wt %. For the same compound, the “Change Mass (wt %)” value ([5]; Relative Humidity 30.02 %, elapse time 382.94 min) was 0.026 wt %, the “Change Mass (wt %)” value ([5]; Relative Humidity 34.96 %, elapse time 390.96 min) was 0.031 wt % and the “Change Mass (wt %)” value ([5]; Relative Humidity 39.94 %, elapse time 398.96 min) was 0.038 wt %. The “Change Mass (wt %)” value ([5]; Relative Humidity 44.99 %, elapse time 406.96 min) was 0.043 wt %, the “Change Mass (wt %)” value ([5]; Relative Humidity 49.99 %, elapse time 415.98 min) was 0.049 wt % and the “Change Mass (wt %)” value ([5]; Relative Humidity 54.96 %, elapse time 424.99 min) was 0.055 wt %. For the same compound, the “Change Mass (wt %)” value ([5]; Relative Humidity 59.96 %, elapse time 434.01 min) was 0.061 wt %, the “Change Mass (wt %)” value ([5]; Relative Humidity 64.91 %, elapse time 443.03 min) was 0.067 wt % and the “Change Mass (wt %)” value ([5]; Relative Humidity 69.86 %, elapse time 452.04 min) was 0.073 wt %. For the same compound, the “Change Mass (wt %)” value ([5]; Relative Humidity 74.86 %, elapse time 461.04 min) was 0.080 wt %, the “Change Mass (wt %)” value ([5]; Relative Humidity 79.80 %, elapse time 470.04 min) was 0.087 wt % and the “Change Mass (wt %)” value ([5]; Relative Humidity 84.74 %, elapse time 479.04 min) was 0.101 wt %. The “Change Mass (wt %)” value ([5]; Relative Humidity 89.58 %, elapse time 488.06 min) was 0.113 wt %, the “Change Mass (wt %)” value ([5]; Relative Humidity 94.72 %, elapse time 497.06 min) was 0.135 wt % and the hygroscopicity [5] was “substantially non-hygroscopic”.
In the case of `CCN1CCC[C@H]1CNC(=O)c1cc(S(=O)(=O)CC)c(N)cc1OC` [Form A′ small PSD], the “D10 (μm)” value [1] is reported as 5.1 μm, the “D50 (μm)” value [1] is reported as 18.3 μm and the “D90 (μm)” value [1] is reported as 80.1 μm.
